According to patent US11628198B2, “Methods for prevention and treatment of acute renal injury” (Cornell University, priority 2008, dated 2023):
Marks after values point to notes of the source that are not given here. Non-standard residues stand in square brackets, D forms with d. No end group written: not given here.

Tests used:
[1] = tested on: ARI caused by ischemia-reperfusion (I/R); assay: I/R model: TUNEL assay for apoptosis; assay type: in vivo, rat; details: 30 min ischemia and 24 h reperfusion; 3 mg/kg
Procedure: (§1) Sprague Dawley rats (250˜300 g) were assigned to four groups: (1) sham surgery group without I/R; (2) I/R+saline vehicle treatment; (3) I/R+SS-20 treatment; (4) I/R+SS-31 treatment. Each experimental group consisted of 8 rats. SS-20 and SS-31 (3 mg/kg, dissolved in saline) were administered to rats 30 min before ischemia and immediately before onset of reperfusion. The control rats were given saline alone on the same schedule.
(§2) Rats were anesthetized with a mixture of ketamine (90 mg/kg, i.p.) and xylazine (4 mg/kg, i.p.). The left renal vascular pedicle was occluded temporarily using a micro-clamp for 30 or 45 min. At the end of the ischemic period, reperfusion was established by removing of the clamp. At that time, the contralateral right kidney was removed. After 24 h reperfusion, animals were sacrificed and blood samples were obtained by cardiac puncture. Renal function was determined by blood urea nitrogen (BUN) and serum creatinine (BioAssay Systems DIUR-500 and DICT-500).
TUNEL Assay for Apoptosis: Renal tissue sections were deparaffinized and rehydrated by xylenes, graded alcohol series and deionized H2O, and then incubated in 20 μg/ml proteinase K for 20 min at RT. In situ cell death detection POD kit (Roche, IN, USA) was used according to the manufacturer's instructions. […]

[2] = tested on: ARI caused by ischemia-reperfusion (I/R); assay: I/R model of ARI: BUN and serum creatinine; assay type: in vivo, rat; details: 45 min ischemia and 24 h reperfusion; 3 mg/kg 30 min before ischemia and before reperfusion
Procedure: as §1, §2
BUN and serum creatinine were assayed using kits from BioAssay Systems (DIUR-500 and DICT-500). […] The # indicates p<0.05 from the IR=saline group.

[3] = tested on: ATP content in renal tissue; assay: I/R model: ATP content assay of kidney tissue; assay type: in vivo, rat
Procedure: as §1, §2
ATP Content Assay: The kidney tissue was immediately put into 10 ml 5% trichloroacetic acid with 10 mM DTT, 2 mM EDTA and cut into small pieces. The tissue was homogenized on ice, incubated for another 10 min, centrifuged for 10 min at 2000×g, and neutralized with 10N KOH to pH 7.6. After centrifugation for 10 min at 2000×g, aliquots of the resulting supernatant were stored at −80° C. ATP was measured by bioluminescence (ATP bioluminescent kit, Sigma, MO, USA).

[4] = tested on: renal mitochondria; assay: I/R model: respiration of isolated renal mitochondria; assay type: in vivo, rat; details: after 45 min ischemia, pretreatment
Procedure: Results. The effects of the aromatic-cationic peptides of the invention on a model of ARI caused by ischemia-reperfusion were investigated. Renal mitochondria were isolated in accordance with the procedures described above and oxygen consumption was measured.
State 3 respiration was initiated with the addition of ADP.

[5] = tested on: ARI caused by ischemia-reperfusion (I/R); assay: I/R model: renal morphologic examination (H&E, PAS); assay type: in vivo, rat; details: 45 min ischemia and 24 h reperfusion
Procedure: as §1, §2
Renal Morphologic Examination: Kidneys were fixed in 10% neutral-buffered formalin and embedded in paraffin wax. Three micron sections were stained with hematoxylin-eosin (H&E) and periodic acid-Schiff (PAS) and analyzed by light microscopy. Lesions were scored using the following criteria: [1] mitosis and necrosis of individual cells; [2] necrosis of all cells in adjacent proximal convoluted tubules with survival of surrounding tubules; [3] necrosis confined to the distal third of the proximal convoluted tubule with a band of necrosis extending across the inner cortex; and [4] necrosis affecting all three segments of the proximal convoluted tubule.

[6] = tested on: CIN in patients; details: 443 patients randomly assigned; cited from earlier work

Row | Molecule | TUNEL-positive cells in the medulla (tubular cell apoptosis) [1] | BUN [2] | serum creatinine [2] | ATP content in renal tissue ([3]; 1 h reperfusion following 45 min ischemia, vs vehicle) | ATP content in renal tissue ([3]; end of 15 min ischemia) | renal mitochondrial oxygen consumption (state 3 respiration) [4] | histopathological score [5] | tubular cell injury (H&E, PAS) [5] | incidence of CIN [6]
1 | F[dR]FK-NH2 [SS-20] | significantly prevented TUNEL-positive cells | 130.7 ± 5.5# mg/dl | 1.06 ± 0.11# mg/dl | significantly higher | not altered | significantly improved oxygen consumption | significantly improved histopathological score | protected brush border and prevented necrosis in the proximal tubules | 
2 | C[C@H](O)C(=O)Nc1c(I)c(C(=O)NC(CO)CO)c(I)c(C(=O)NC(CO)CO)c1I [Iopamidol (Isovue 370), Iopamidol] |  |  |  |  |  |  |  |  | 8.2%
